Source: paper PMC10666548, “Identification of the bacterial metabolite aerugine as potential trigger of human dopaminergic neurodegeneration” (Environment international, 2023)
“Also recorded” adds a separate entry of the source.

Key:
LUHMES neurons = experiment: Time course of cell death in d6 LUHMES (phase contrast, TMRE, H-33342, propidium iodide); format: cell-based, human; conditions: 10 μM
Method: Cells were stained either with 50 nM tetramethylrhodamine ethyl ester (TMRE) or 1.5 μM propidium iodide (PI) for at least 30 min at 37 °C and 5% CO2 ([Brüll et al., 2020]; [Krug et al., 2014]). Fluorescent imaging was performed (AxioObserver, Zeiss, Germany) with excitation/emission wavelengths of 575 ± 25/640 ± 35 nm.
To obtain additional information on the death process triggered by aerugine, we also examined earlier time points after exposure to a fixed concentration of 10 μM. Semi-quantitative information was obtained from phase contrast images, by staining of energized mitochondria with the potential-sensitive dye tetramethylrhodamine ethyl ester (TMRE) and by visualization of the chromatin structure with the […] dye H-33342. […] While the neurite structure was well-preserved, some of the cell bodies flattened in a way that the nucleus became visible in phase contrast. The normally round/dome-like cells took a flattened “fried egg” structure. In parallel, the DNA condensed and fragmented into small, round and highly-fluorescent spheres, a typical hallmark of apoptosis. Cells with apoptotic nuclei had lost their TMRE stain. At 8 h, more cell bodies looked flattened (“unhealthy”) and the neurites were thinning. […] This sequence of events is typical of neuronal apoptosis, e.g. under mild excitotoxic conditions, or after exposure to proteasome inhibitors or cytoskeletal poisons ([Gutbier et al., 2018b]; [Leist et al., 1997]; [Volbracht et al., 2001]; [Volbracht et al., 1999]). The overall kinetics of cell death was rather fast, compared to many other toxicants. […] To obtain a more quantitative confirmation of the rapid process, cells were stained with calcein-acetoxymethyl ester and propidium iodide (PI) and observed over time. The staining of nuclei (indication of plasma membrane permeability) by PI was quantified by an imaging algorithm. By 6 h, dead cells increased by 17 ± 6%, by 8 h by 25 ± 5%, and by 10 h, > 95% of the cell nuclei were positive. This confirms the fast cell death process triggered by aerugine (10 μM) in neurons.

[1] = tested on: dopamine neurons of C. elegans BY200; experiment: C. elegans dopaminergic neurodegeneration scoring (GFP-labelled neurons); format: in vivo, Caenorhabditis elegans; conditions: 48 h exposure
Method: (§1) The strain BY200 Pdat-1::gfp (vtIs1), dat-1::GFP(vtls1) was kindly provided by the Blakely laboratory, Vanderbilt University Medical Center and the strain Punc-25:GFP was obtained from the Caenorhabditis Genetics Center (CGC, University of Minnesota, Minneapolis, MN, USA). The worms were maintained in nematode growth medium (NGM) plates that contain: 3 g/l NaCl, 17 g/l agar, 2.5 g/l peptone, 1 mM CaCl2, 5 mg/l cholesterol, 1 mM MgSO4, 25 mM potassium phosphate buffer (pH 6.0) with 1.25 ml nystatin and 50 mg/l streptomycin sulfate) and Escherichia coli (E. coli) OP50 strain was used as food ([Brenner, 1974]). […]
(§2) On day 2 and day 8, approximately, 20–30 worms per treatment were picked onto slides prepped with a 3% agarose pad, anesthetized with 5 μl of 3 mM levamisole hydrochloride ([Sulston et al., 1975]) and observed under an Olympus BX41 fluorescence microscope to determine morphology status according to novel Likert-like scale of degeneration as previously described ([Benedetto et al., 2010]).
(§3) Fig. 5. […] They were exposed to different aerugine concentrations and counted every 24 h. […] Differences on a given day were analyzed by ANOVA and found to be non-significant. […] The GFP-labelled neurons of 20–30 worms per condition were analyzed and scored for specific neurodegeneration. […] These scores were assessed to quantify the dopaminergic neurodegeneration caused be aerugine in vivo. […]

[2] = tested on: GABA neurons of C. elegans Punc-25; experiment: C. elegans GABA neuron degeneration scoring (GFP-labelled neurons); format: in vivo, Caenorhabditis elegans; conditions: 48 h exposure
Method: as §1, §2, §3

[3] = tested on: dopaminergic system of C. elegans BY200; experiment: Basal slowing response (BSR) behavioral assay; format: in vivo, Caenorhabditis elegans; conditions: L4 BY200 worms treated 2 days
Method: The basal slowing response (BSR) is a behavioral assay that assesses the functionality of the worms’ DAergic system. For this, worms were washed three times with S-basal buffer (100 mM NaCl, 5 mg/L cholesterol, 50 mM potassium phosphate buffer, pH 6.0) to remove residual bacteria, and placed on the center of a 60-mm NGM plates in the absence or presence of an OP50 bacteria ring. After habituation (5 min), the number of body bends of each worm was counted during 20 s to determine its immobility rate. The results were expressed as the difference (Δ) between the number of body bends in the absence (a) and presence (p) of bacteria on fresh plates (Δ = a-p). […]
Fig. 5. […] They were exposed to different aerugine concentrations and counted every 24 h. […] Differences on a given day were analyzed by ANOVA and found to be non-significant. […] The GFP-labelled neurons of 20–30 worms per condition were analyzed and scored for specific neurodegeneration. […] These scores were assessed to quantify the dopaminergic neurodegeneration caused be aerugine in vivo. C Worms with wild type morphology (score 0) were counted. […] D The degeneration scores exemplified in B were quantified. […] E The “basal slowing response” was assessed as proxy for the functionality of the worms’ dopaminergic system. It was measured in L4 larval stage BY200 worms treated for 2 days with aerugine. […]

5HT2B receptor = tested on: 5HT2B receptor; parameters: method as in Lin et al., 2017; conditions: ref Lin et al., 2017; cited from earlier work

For `OCC1CSC(c2ccccc2O)=N1` (centres unmarked) [aerugine, 2-[4-(hydroxymethyl)-4,5-dihydro-1,3-thiazol-2-yl]phenol], the “morphology (phase contrast, TMRE, H-33342)” value (LUHMES neurons; 6 h exposure) was “clear morphological changes became obvious”, the “mitochondrial membrane potential in intact neurites (TMRE)” value (LUHMES neurons; 8 h) was “the mitochondrial membrane potential was lost” and the “morphology (neurites, nuclei)” value (LUHMES neurons; 10 h) was “the majority of neurites was lost”. The “increase of dead cells (PI-stained nuclei)” value (LUHMES neurons; by 6 h) was 17 ± 6%, the “increase of dead cells (PI-stained nuclei)” value (LUHMES neurons; by 8 h) was 25 ± 5% and the PI-positive cell nuclei (LUHMES neurons; by 10 h) was greater than 95%. For the same compound, the “DAergic neurons that lost their normal (fully) healthy phenotype” value [1] was “Up to 50%”, the “degeneration of DA neurons” value ([1]; L4 worms) was “concentration-dependent degeneration of DA neurons; also recorded: specific neurodegeneration was observed” and the “degeneration of GABA neurons” value [2] was “not affected”. The “basal slowing response (BSR)” value [3] was “attenuated; also recorded: exerted functional dopaminergic toxicity” and the “displacement of radioactive lysergic acid diethylamide” value (5HT2B receptor) was “displaced radioactive lysergic acid diethylamide at low μM concentrations”.
